{
  "source": "patent US8637537B2",
  "about": "“Serine/threonine kinase inhibitors” (Genentech, Inc., priority 2011, dated 2014)",
  "note": "Structures can show the parent of a compound that is named as a salt.",
  "data": [
    {"target": "T1, human recombinant GST-PAK1-KD protein (Homo sapiens, UniProt Q13153)", "T1 construct": "residues #249-545 of human PAK1, UniProtKP/Swiss Q13153; His6 (N); made in house; host or cells: Sf9 insect cells, pAcGP67 baculovirus expression vector", "T1 sequence (Q13153 249-545)": "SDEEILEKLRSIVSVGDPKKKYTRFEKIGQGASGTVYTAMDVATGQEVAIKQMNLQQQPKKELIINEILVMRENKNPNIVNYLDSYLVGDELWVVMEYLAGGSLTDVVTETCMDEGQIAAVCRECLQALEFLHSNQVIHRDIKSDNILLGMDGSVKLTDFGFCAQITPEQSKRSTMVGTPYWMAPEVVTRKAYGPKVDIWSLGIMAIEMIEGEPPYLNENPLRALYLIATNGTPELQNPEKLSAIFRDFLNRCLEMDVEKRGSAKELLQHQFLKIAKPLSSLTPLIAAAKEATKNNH", "assay": "GST-PAK1-KD (kinase domain) biochemical assay, microfluidic mobility shift", "conditions": "not given", "units": {"Ki": "nM"}, "values": [
      {"smiles": "c1cc(Nc2cc(C3CC3)[nH]n2)nc(NCc2ccc3[nH]cnc3c2)n1", "note": "[I-13, N^2-((1H-Benzo[d]imidazol-5-yl)methyl)-N^4-(5-cyclopropyl-1H-pyrazol-3-yl)pyrimidine-2,4-diamine]", "Ki": "< 50"}
    ]},
    {"target": "T1, human recombinant GST-PAK1-KD protein", "assay": "GST-PAK1-KD (kinase domain) biochemical assay, microfluidic mobility shift", "conditions": "Table I, PAK1 Ki class; read-out: Ki", "units": {"Ki": "nM"}, "values": [
      {"smiles": "Cc1cc(Nc2ccnc(N[C@@H](C)c3ccc4[nH]cnc4c3)n2)n[nH]1", "note": "[I-121, (S)—N^2-(1-(1H-benzo[d]imidazol-5-yl)ethyl)-N^4-(5-methyl-1H-pyrazol-3-yl)pyrimidine-2,4-diamine]", "Ki": "250 to 1000"},
      {"smiles": "c1cc(CNc2nccc(Nc3cc(C4CCCO4)[nH]n3)n2)c2cc[nH]c2c1", "note": "(centres unmarked) [I-119, N^2-((1H-indol-4-yl)methyl)-N^4-(5-(tetrahydrofuran-2-yl)-1H-pyrazol-3-yl)pyrimidine-2,4-diamine]", "Ki": "250 to 1000"},
      {"smiles": "c1ccc([C@@H]2C[C@H]2c2cc(Nc3ccnc(NCc4cccc5[nH]ccc45)n3)n[nH]2)cc1", "note": "(racemic) [I-57, N^2-((1H-indol-4-yl)methyl)-N^4-(5-((trans)-2-phenylcyclopropyl)-1H-pyrazol-3-yl)pyrimidine-2,4-diamine]", "Ki": "250 to 1000"},
      {"smiles": "c1cc(CNc2nccc(Nc3cc(C4CCOC4)[nH]n3)n2)c2cc[nH]c2c1", "note": "(centres unmarked) [I-51, N^2-((1H-indol-4-yl)methyl)-N^4-(5-(tetrahydrofuran-3-yl)-1H-pyrazol-3-yl)pyrimidine-2,4-diamine]", "Ki": "50 to 250"},
      {"smiles": "C[C@H](Nc1ncc(F)c(Nc2cc(C3CC3)[nH]n2)n1)c1cccc2[nH]ccc12", "note": "[I-99, N^4-(5-cyclopropyl-1H-pyrazol-3-yl)-5-fluoro-N^2-[(1S)-1-(1H-indol-4-yl)ethyl]pyrimidine-2,4-diamine]", "Ki": "50 to 250"},
      {"smiles": "C[C@H](Nc1nccc(Nc2cc([C@H]3C[C@@H]3c3ccccc3F)[nH]n2)n1)c1ccc2[nH]cnc2c1", "note": "(stereo in doubt) [I-23, N^2—((S)-1-(1H-benzo[d]imidazol-5-yl)ethyl)-N^4-(5-((trans)-2-(2-fluorophenyl)cyclopropyl)-1H-pyrazol-3-yl)pyrimidine-2,4-diamine]", "Ki": "50 to 250"},
      {"smiles": "FC1(F)CC(c2cc(Nc3ccnc(NCc4cccc5[nH]ccc45)n3)n[nH]2)C1", "note": "[I-104, N^2-((1H-indol-4-yl)methyl)-N^4-(5-(3,3-difluorocyclobutyl)-1H-pyrazol-3-yl)pyrimidine-2,4-diamine]", "Ki": "50 to 250"},
      {"smiles": "C[C@H](Nc1nccc(Nc2cc(C3CC3)[nH]n2)n1)c1ccc2[nH]ccc2c1Cl", "note": "[I-22, (S)—N^2-(1-(4-chloro-1H-indol-5-yl)ethyl)-N^4-(5-cyclopropyl-1H-pyrazol-3-yl)pyrimidine-2,4-diamine]", "Ki": "50 to 250"},
      {"smiles": "CN(Cc1ccc2[nH]cnc2c1)c1nccc(Nc2cc(C3CC3)[nH]n2)n1", "note": "[I-12, N^2-((1H-Benzo[d]imidazol-5-yl)methyl)-N^4-(5-cyclopropyl-1H-pyrazol-3-yl)-N^2-methylpyrimidine-2,4-diamine]", "Ki": "< 50"},
      {"smiles": "F[C@@H]1C[C@@H]1c1cc(Nc2ccnc(NCc3ccc4[nH]cnc4c3Cl)n2)n[nH]1", "note": "[I-77, N^2-((4-chloro-1H-benzo[d]imidazol-5-yl)methyl)-N^4-(5-((1R,2R)-2-fluorocyclopropyl)-1H-pyrazol-3-yl)pyrimidine-2,4-diamine]", "Ki": "< 50"},
      {"smiles": "Fc1cc(CNc2ncc(F)c(Nc3cc(C4CCC4)[nH]n3)n2)c2cc[nH]c2c1", "note": "[I-90, N^4-(5-Cyclobutyl-1H-pyrazol-3-yl)-5-fluoro-N^2-((6-fluoro-1H-indol-4-yl)methyl)pyrimidine-2,4-diamine formate]", "Ki": "250 to 1000"},
      {"smiles": "C[C@@H](c1ccc2[nH]cnc2c1)N(C)c1nccc(Nc2cc(C3CC3)[nH]n2)n1", "note": "[I-9, (S)—N^2-(1-(1H-benzo[d]imidazol-5-yl)ethyl)-N^4-(5-cyclopropyl-1H-pyrazol-3-yl)-N^2-methylpyrimidine-2,4-diamine]", "Ki": "< 50"},
      {"smiles": "C[C@H](Nc1nccc(Nc2cc([C@@H]3C[C@H]3F)[nH]n2)n1)c1ccc2[nH]ccc2c1", "note": "[I-72, N^2—((S)-1-(1H-indol-5-yl)ethyl)-N^4-(5-((1S,2R)-2-fluorocyclopropyl)-1H-pyrazol-3-yl)pyrimidine-2,4-diamine]", "Ki": "< 50"},
      {"smiles": "Cc1ccc(CNc2nccc(Nc3cc(C4CC4)[nH]n3)n2)c2cc[nH]c12", "note": "[I-52, N^4-(5-Cyclopropyl-1H-pyrazol-3-yl)-N^2-((7-methyl-1H-indol-4-yl)methyl)pyrimidine-2,4-diamine]", "Ki": "50 to 250"},
      {"smiles": "C[C@H](Nc1nccc(Nc2cc(C3CC3)[nH]n2)n1)c1cccc2[nH]ccc12", "note": "[I-98, N^4-(5-cyclopropyl-1H-pyrazol-3-yl)-N^2-[(1S)-1-(1H-indol-4-yl)ethyl]pyrimidine-2,4-diamine]", "Ki": "< 50"},
      {"smiles": "Clc1c(CNc2nccc(Nc3cc(C4CCC4)[nH]n3)n2)ccc2[nH]cnc12", "note": "[I-108, N^2-((4-chloro-1H-benzo[d]imidazol-5-yl)methyl)-N^4-(5-cyclobutyl-1H-pyrazol-3-yl)pyrimidine-2,4-diamine]", "Ki": "< 50"}
    ]},
    {"target": "T1, human recombinant GST-PAK1-KD protein", "assay": "GST-PAK1-KD (kinase domain) biochemical assay, microfluidic mobility shift", "conditions": "Table II, PAK1 Ki class; read-out: Ki", "units": {"Ki": "nM"}, "values": [
      {"smiles": "Fc1cnc(NCc2cc(Cl)cc3[nH]ncc23)nc1Nc1cc(C2CC2)[nH]n1", "note": "[II-57, N^2-((6-chloro-1H-indazol-4-yl)methyl)-N^4-(5-cyclopropyl-1H-pyrazol-3-yl)-5-fluoropyrimidine-2,4-diamine]", "Ki": "< 50"},
      {"smiles": "COC[C@@H](C)c1cc(Nc2ccnc(N(C)Cc3ccc4[nH]cnc4c3Cl)n2)n[nH]1", "note": "[II-80, (S)-N^2-((4-chloro-1H-benzo[d]imidazol-5-yl)methyl)-N^4-(5-(1-methoxypropan-2-yl)-1H-pyrazol-3-yl)-N^2-methylpyrimidine-2,4-diamine]", "Ki": "< 50"},
      {"smiles": "CN(Cc1ccc2[nH]cnc2c1Cl)c1nccc(Nc2cc(OCc3ccccc3)[nH]n2)n1", "note": "[II-3, N^4-(5-Benzyloxy-1H-pyrazol-3-yl)-N^2-[(4-chloro-1H-benzimidazol-5-yl)methyl]-N^2-methyl-pyrimidine-2,4-diamine]", "Ki": "< 50"},
      {"smiles": "CN(C)CCCN(Cc1cc(F)cc2[nH]ncc12)c1nccc(Nc2cc(C3CC3)[nH]n2)n1", "note": "[II-48, N^4-(5-cyclopropyl-1H-pyrazol-3-yl)-N^2-(3-(dimethylamino)propyl)-N^2-((6-fluoro-1H-indazol-4-yl)methyl)pyrimidine-2,4-diamine]", "Ki": "< 50"},
      {"smiles": "CN(C)CCN(Cc1ccc2[nH]cnc2c1)c1nccc(Nc2cc(C3CC3)[nH]n2)n1", "note": "[II-105, N^2-((1H-benzo[d]imidazol-5-yl)methyl)-N^4-(5-cyclopropyl-1H-pyrazol-3-yl)-N^2-(2-(dimethylamino)ethyl)pyrimidine-2,4-diamine]", "Ki": "50 to 250"},
      {"smiles": "CN(Cc1cccc2[nH]ncc12)c1nccc(Nc2cc(C3CC3)[nH]n2)n1", "note": "[II-84, N^2-((1H-indazol-4-yl)methyl)-N^4-(5-cyclopropyl-1H-pyrazol-3-yl)-N^2-methylpyrimidine-2,4-diamine]", "Ki": "< 50"},
      {"smiles": "Fc1cc(CNc2nccc(Nc3cc(C4CC4)[nH]n3)n2)c2cn[nH]c2c1", "note": "[II-52, N^4-(5-cyclopropyl-1H-pyrazol-3-yl)-N^2-((6-fluoro-1H-indazol-4-yl)methyl)pyrimidine-2,4-diamine]", "Ki": "< 50"},
      {"smiles": "OCCN(Cc1cc(F)cc2[nH]ncc12)c1nccc(Nc2cc(C3CC3)[nH]n2)n1", "note": "[II-66, 2-((4-((5-cyclopropyl-1H-pyrazol-3-yl)amino)pyrimidin-2-yl)((6-fluoro-1H-indazol-4-yl)methyl)anino)ethanol]", "Ki": "< 50"},
      {"smiles": "c1cc(CNc2nccc(Nc3cc(C4COC4)[nH]n3)n2)c2cc[nH]c2c1", "note": "[II-9, N^2-(1H-indol-4-ylmethyl)-N^4-[5-(oxetan-3-yl)-1H-pyrazol-3-yl]pyrimidine-2,4-diamine]", "Ki": "50 to 250"},
      {"smiles": "C[C@H](O)CN(Cc1cc(F)cc2[nH]ncc12)c1nccc(Nc2cc(C3CC3)[nH]n2)n1", "note": "[II-72, (S)-1-((4-((5-cyclopropyl-1H-pyrazol-3-yl)amino)pyrimidin-2-yl)((6-fluoro-1H-indazol-4-yl)methyl)amino)propan-2-ol]", "Ki": "< 50"},
      {"smiles": "CC(C)N(Cc1cc(F)cc2[nH]ncc12)c1nccc(Nc2cc(C3CC3)[nH]n2)n1", "note": "[II-63, N^4-(5-cyclopropyl-1H-pyrazol-3-yl)-N^2-((6-fluoro-1H-indazol-4-yl)methyl)-N^2-isopropylpyrimidine-2,4-diamine]", "Ki": "< 50"},
      {"smiles": "CO[C@@H](C)CN(Cc1cc(F)cc2[nH]ncc12)c1nccc(Nc2cc(C3CC3)[nH]n2)n1", "note": "[II-95, (S)-N^4-(5-cyclopropyl-1H-pyrazol-3-yl)-N^2-((6-fluoro-1H-indazol-4-yl)methyl)-N^2-(2-methoxypropyl)pyrimidine-2,4-diamine]", "Ki": "< 50"},
      {"smiles": "CN(Cc1ccc2[nH]cnc2c1Cl)c1nccc(Nc2cc([C@H]3CC3(F)F)[nH]n2)n1", "note": "[II-54, (R)-N^2-((4-chloro-1H-benzo[d]imidazol-5-yl)methyl)-N^4-(5-(2,2-difluorocyclopropyl)-1H-pyrazol-3-yl)-N^2-methylpyrimidine-2,4-diamine]", "Ki": "< 50"},
      {"smiles": "CN(Cc1cc2nc[nH]c2cc1F)c1nccc(Nc2cc(C3CC3)[nH]n2)n1", "note": "[II-113, N^2-((6-fluoro-1H-benzo[d]imidazol-5-yl)methyl)-N^4-(5-cyclopropyl-1H-pyrazol-3-yl)-N^2-methylpyrimidine-2,4-diamine]", "Ki": "< 50"},
      {"smiles": "Clc1c(CNc2nccc(Nc3cc(C4COC4)[nH]n3)n2)ccc2[nH]cnc12", "note": "[II-4, N^2-[(4-chloro-1H-benzimidazol-5-yl)methyl]-N^4-[5-(oxetan-3-yl)-1H-pyrazol-3-yl]pyrimidine-2,4-diamine, formic acid salt]", "Ki": "< 50"},
      {"smiles": "CCN(Cc1cccc2[nH]ncc12)c1ncc(F)c(Nc2cc(C3CC3)[nH]n2)n1", "note": "[II-87, N^2-((1H-indazol-4-yl)methyl)-N^4-(5-cyclopropyl-1H-pyrazol-3-yl)-N^2-ethyl-5-fluoropyrimidine-2,4-diamine]", "Ki": "< 50"},
      {"smiles": "Fc1cnc(NCc2cc(C(F)(F)F)cc3[nH]ncc23)nc1Nc1cc(C2CC2)[nH]n1", "note": "[II-109, N^4-(5-cyclopropyl-1H-pyrazol-3-yl)-5-fluoro-N^2-((6-(trifluoromethyl)-1H-indazol-4-yl)methyl)pyrimidine-2,4-diamine]", "Ki": "250 to 1000"},
      {"smiles": "Cc1cc(Nc2ccnc(NCc3ccc4[nH]cnc4c3Cl)n2)n[nH]1", "note": "[II-46, N^2-((4-Chloro-1H-benzo[d]imidazol-5-yl)methyl)-N^4-(5-methyl-1H-pyrazol-3-yl)pyrimidine-2,4-diamine]", "Ki": "50 to 250"}
    ]}
  ]
}
